Assay results as given in patent publication US20230148005A1, “MACROCYCLIC COMPOUNDS AND USES THEREOF” (THESEUS PHARMACEUTICALS, INC., priority 2020, published 2023).

Tests used:
EGFR^L58R/T790M = EGFR^L58R/T790M (Homo sapiens, UniProt P00533, L858R/T790M); assay: in vitro kinase assay (HTRF KinEASE-TK kit), LT; assay type: biochemical; details: kinase inhibition
From the text: (§1) Assays using an in vitro kinase assay kit (HTRF KinEASE-TK kit) can be used to study the inhibitory activity of compounds described herein with respect to EGFR mutants such as EGFR^L858R, EGFR^L58R/T790M, and EGFR^L858R/T790M/C^797S.

EGFR^L858R = EGFR^L858R (Homo sapiens, UniProt P00533, L858R); assay: in vitro kinase assay (HTRF KinEASE-TK kit), L; assay type: biochemical; details: kinase inhibition
From the text: as §1

Ba/F3 Parental = assay: Ba/F3 viability assay (CellTiter-Glo), parental; assay type: cell-based; details: Mus musculus, BaF3, anti-proliferation
Summary of the method: (§2)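 Read-out: viability signal, used as the measure of proliferation inhibition by test compounds.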

Ba/F3 EGFR-Del19/T790M = Ba/F3 EGFR-Del19/T790M (Homo sapiens, UniProt P00533, T790M, cells depend on it, form not given); assay: Ba/F3 viability assay (CellTiter-Glo), DT; assay type: cell-based; details: anti-proliferation, read-out: BaF3 DT IC50
Summary of the method: as §2

[1] = biological target: Ba/F3 EGFR-Del19/T790M/C797S (Homo sapiens, UniProt P00533, T790M/C797S, cells depend on it, form not given); assay: Ba/F3 viability assay (CellTiter-Glo), DTC; assay type: cell-based; details: anti-proliferation, read-out: BaF3 DTC IC50
Summary of the method: as §2

Ba/F3 EGFR-Del19/C797S = Ba/F3 EGFR-Del19/C797S (Homo sapiens, UniProt P00533, C797S, cells depend on it, form not given); assay: Ba/F3 viability assay (CellTiter-Glo), DC; assay type: cell-based; details: anti-proliferation, read-out: BaF3 DC IC50
Summary of the method: as §2

EGFR^L858R/T790M/C^797S = EGFR^L858R/T790M/C^797S (Homo sapiens, UniProt P00533, C797S/L858R/T790M); assay: in vitro kinase assay (HTRF KinEASE-TK kit), LTC; assay type: biochemical; details: kinase inhibition
From the text: as §1

Chain of EGFR^L58R/T790M (P00533 25-1210 T790M/L858R): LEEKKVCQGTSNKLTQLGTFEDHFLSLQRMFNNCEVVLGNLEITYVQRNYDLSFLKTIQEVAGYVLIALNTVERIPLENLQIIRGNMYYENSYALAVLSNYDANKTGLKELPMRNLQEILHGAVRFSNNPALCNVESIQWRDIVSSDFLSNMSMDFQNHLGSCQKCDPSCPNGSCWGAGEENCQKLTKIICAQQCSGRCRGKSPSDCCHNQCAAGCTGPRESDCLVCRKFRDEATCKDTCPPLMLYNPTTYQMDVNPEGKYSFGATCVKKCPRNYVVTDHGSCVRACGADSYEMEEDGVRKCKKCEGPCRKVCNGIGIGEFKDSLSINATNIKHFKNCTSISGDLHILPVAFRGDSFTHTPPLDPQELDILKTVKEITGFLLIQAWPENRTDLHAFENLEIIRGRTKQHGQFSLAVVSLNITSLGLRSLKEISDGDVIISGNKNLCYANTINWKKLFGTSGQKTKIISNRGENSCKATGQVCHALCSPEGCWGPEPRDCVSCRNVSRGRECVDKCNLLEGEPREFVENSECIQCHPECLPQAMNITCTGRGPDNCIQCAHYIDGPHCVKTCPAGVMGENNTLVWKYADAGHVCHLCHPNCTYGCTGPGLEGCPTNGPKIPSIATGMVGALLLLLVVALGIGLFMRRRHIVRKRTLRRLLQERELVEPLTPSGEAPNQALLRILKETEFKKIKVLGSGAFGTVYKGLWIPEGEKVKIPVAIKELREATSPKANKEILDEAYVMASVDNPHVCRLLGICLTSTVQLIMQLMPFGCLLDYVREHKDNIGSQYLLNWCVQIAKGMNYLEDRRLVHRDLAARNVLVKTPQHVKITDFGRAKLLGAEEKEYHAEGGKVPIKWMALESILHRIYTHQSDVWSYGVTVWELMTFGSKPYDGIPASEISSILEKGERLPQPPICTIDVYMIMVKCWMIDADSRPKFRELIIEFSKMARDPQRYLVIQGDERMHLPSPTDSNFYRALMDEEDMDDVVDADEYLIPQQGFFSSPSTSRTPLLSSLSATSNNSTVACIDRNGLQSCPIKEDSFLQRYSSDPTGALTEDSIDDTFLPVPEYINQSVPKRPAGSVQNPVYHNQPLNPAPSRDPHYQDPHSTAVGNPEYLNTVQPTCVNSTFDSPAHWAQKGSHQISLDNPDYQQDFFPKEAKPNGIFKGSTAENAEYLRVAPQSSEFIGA
Chain of Ba/F3 EGFR-Del19/C797S (P00533 with tags, fused parts or gaps DEL746-750/C797S, form open): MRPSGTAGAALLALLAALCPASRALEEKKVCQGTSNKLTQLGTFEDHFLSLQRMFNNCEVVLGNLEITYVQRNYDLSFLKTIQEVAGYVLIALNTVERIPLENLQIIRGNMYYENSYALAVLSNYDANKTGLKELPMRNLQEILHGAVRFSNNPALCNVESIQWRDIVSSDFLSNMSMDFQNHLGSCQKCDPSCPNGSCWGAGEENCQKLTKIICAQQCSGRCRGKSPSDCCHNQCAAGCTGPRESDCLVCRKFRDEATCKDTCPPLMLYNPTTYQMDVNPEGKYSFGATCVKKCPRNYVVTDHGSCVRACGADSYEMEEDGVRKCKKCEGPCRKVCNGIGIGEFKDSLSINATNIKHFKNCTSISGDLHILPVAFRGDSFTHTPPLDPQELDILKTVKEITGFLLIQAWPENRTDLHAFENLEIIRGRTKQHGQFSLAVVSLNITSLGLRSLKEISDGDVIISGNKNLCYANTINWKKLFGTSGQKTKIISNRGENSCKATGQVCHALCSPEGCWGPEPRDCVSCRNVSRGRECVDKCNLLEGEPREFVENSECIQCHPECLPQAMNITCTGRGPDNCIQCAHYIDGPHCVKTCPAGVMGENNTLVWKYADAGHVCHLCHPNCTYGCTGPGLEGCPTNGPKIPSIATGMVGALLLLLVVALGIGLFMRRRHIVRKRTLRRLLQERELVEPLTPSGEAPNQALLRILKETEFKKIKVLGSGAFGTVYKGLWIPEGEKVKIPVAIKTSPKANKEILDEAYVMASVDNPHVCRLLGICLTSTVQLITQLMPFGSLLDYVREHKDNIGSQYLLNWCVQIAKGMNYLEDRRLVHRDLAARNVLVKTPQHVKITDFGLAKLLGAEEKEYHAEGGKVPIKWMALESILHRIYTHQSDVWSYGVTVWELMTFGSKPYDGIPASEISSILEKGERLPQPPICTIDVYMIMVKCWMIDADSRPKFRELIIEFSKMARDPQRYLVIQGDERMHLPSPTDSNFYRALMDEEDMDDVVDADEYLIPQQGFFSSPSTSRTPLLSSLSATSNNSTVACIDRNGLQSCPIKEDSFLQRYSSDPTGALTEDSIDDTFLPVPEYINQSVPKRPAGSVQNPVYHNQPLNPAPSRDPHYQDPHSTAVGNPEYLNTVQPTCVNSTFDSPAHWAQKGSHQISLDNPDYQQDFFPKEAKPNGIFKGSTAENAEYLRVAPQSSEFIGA
Chain of EGFR^L858R/T790M/C^797S (P00533 25-1210 T790M/C797S/L858R): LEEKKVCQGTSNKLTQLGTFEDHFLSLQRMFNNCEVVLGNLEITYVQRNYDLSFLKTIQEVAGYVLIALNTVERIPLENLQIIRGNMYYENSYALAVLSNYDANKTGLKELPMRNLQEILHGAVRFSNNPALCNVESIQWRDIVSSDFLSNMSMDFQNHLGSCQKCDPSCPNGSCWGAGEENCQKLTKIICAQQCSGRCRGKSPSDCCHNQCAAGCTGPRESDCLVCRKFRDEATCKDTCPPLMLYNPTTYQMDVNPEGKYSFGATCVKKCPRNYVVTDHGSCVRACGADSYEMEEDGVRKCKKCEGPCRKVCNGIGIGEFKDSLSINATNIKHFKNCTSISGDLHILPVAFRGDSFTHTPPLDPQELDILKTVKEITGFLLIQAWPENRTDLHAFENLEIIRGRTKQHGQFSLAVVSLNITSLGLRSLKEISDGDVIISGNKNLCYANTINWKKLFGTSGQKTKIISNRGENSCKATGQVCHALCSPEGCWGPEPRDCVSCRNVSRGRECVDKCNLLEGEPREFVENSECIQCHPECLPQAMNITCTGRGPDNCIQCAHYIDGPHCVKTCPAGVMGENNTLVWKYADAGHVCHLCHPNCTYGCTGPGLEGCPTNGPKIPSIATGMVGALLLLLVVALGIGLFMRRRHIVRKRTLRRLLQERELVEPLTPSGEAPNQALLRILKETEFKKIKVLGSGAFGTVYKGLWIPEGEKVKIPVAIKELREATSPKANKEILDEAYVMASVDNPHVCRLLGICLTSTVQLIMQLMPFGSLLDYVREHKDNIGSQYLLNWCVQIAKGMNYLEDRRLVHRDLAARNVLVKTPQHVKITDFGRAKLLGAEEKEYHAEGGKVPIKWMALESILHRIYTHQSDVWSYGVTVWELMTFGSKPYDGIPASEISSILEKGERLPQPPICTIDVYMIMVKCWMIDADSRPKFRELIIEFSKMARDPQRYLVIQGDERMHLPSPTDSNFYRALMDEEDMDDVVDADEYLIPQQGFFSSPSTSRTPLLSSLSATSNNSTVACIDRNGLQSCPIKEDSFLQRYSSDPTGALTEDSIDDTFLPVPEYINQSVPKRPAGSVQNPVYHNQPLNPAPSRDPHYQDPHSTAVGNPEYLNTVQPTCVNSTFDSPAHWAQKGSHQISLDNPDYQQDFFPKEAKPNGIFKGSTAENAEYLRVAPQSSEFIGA
Chain of EGFR^L858R (P00533 25-1210 L858R): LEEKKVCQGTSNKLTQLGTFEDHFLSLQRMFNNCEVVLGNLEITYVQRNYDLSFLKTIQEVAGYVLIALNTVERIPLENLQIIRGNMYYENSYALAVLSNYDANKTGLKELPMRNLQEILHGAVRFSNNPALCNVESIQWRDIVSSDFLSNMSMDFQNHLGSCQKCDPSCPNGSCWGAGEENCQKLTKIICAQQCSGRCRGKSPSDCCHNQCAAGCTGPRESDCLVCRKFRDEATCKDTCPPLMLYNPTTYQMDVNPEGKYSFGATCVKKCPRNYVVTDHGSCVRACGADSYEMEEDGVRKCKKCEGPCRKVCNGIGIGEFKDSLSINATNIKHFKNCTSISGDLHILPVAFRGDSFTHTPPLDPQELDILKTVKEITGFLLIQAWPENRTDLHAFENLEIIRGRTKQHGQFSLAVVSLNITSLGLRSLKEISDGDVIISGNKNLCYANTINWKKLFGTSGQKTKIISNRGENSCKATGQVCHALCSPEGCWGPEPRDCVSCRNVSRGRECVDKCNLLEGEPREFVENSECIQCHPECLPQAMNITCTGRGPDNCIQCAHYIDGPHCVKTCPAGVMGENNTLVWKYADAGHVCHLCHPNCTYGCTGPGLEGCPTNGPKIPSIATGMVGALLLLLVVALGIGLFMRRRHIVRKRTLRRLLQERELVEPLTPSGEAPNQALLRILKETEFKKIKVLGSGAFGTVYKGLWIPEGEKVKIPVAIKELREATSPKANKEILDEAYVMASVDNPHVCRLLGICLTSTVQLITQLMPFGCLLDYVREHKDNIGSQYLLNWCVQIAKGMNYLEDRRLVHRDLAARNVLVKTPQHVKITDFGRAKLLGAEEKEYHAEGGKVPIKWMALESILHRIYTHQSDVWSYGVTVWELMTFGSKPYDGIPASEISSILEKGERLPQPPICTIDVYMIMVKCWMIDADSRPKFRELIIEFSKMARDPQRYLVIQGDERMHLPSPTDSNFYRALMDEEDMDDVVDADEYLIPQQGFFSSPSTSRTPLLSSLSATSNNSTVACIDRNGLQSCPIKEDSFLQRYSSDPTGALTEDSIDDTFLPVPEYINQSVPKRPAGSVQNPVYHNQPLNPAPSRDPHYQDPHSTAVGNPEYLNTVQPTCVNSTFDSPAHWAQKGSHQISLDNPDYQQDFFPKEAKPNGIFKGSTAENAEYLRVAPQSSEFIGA

IC50 (EGFR^L58R/T790M) [µM] | IC50 (EGFR^L858R) [µM] | IC50 (EGFR^L858R/T790M/C^797S) [µM] | SMILES | IC50 (Ba/F3 Parental) [µM] | GI50 (Ba/F3 EGFR-Del19/T790M) [µM] | GI50 [1] [µM] | GI50 (Ba/F3 EGFR-Del19/C797S) [µM]
< 0.01 | < 0.01 | < 0.01 | C[C@H]1CCOc2c(cnn2C)-c2nccc(n2)Nc2cc3c(cn2)c(-c2ccc(CN4CCCC4)n2C)nn31 [(140)] | 0.1 to 1 | < 0.01 | < 0.01 | < 0.01
< 0.01 | < 0.01 | < 0.01 | CCN(CC)C1CCN(c2cc(F)cc(-c3nn4c5cc(ncc35)Nc3ccnc(n3)-c3cnn(C)c3OCC[C@@H]4C)c2)CC1 [(141)] | 0.1 to 1 | 0.01 to 0.1 | 0.01 to 0.1 | 0.01 to 0.1
< 0.01 | < 0.01 | < 0.01 | CCCN1CCN(Cc2cnc(-c3nn4c5cc(ncc35)Nc3ccnc(n3)-c3cnn(C)c3OCC[C@@H]4C)s2)CC1 [(142)] | 0.1 to 1 | 0.01 to 0.1 | < 0.01 | 0.01 to 0.1
< 0.01 | 0.01 to 0.1 | < 0.01 | C[C@H]1CCOc2c(cnn2C)-c2nccc(n2)Nc2cc3c(cn2)c(-c2ncc(CN4CCOCC4)s2)nn31 [(143)] | ≥ 1 | 0.01 to 0.1 | 0.01 to 0.1 | 0.01 to 0.1
< 0.01 | < 0.01 | < 0.01 | C[C@H]1CCOc2c(cnn2C)-c2nccc(n2)Nc2cc3c(cn2)c(-c2cc(CN4CCN(C)CC4)n(C)c2)nn31 [(144)] | 0.01 to 0.1 | < 0.01 | < 0.01 | < 0.01
< 0.01 | < 0.01 | < 0.01 | C[C@H]1CCOc2c(cnn2C)-c2nccc(n2)Nc2cc3c(cn2)c(-c2cccc(OCCN4CCOCC4)c2)nn31 [(145), (16S)-11,16-dimethyl-19-[3-(2-morpholinoethoxy)phenyl]-13-oxa-2,6,10,11,17,18,22,25-octazapentacyclo[15.5.2.1^3,7.0^8,12.0^20,24]pentacosa-1(22),3,5,7(25),8(12),9,18,20,23-nonaene] | 0.1 to 1 | < 0.01 | < 0.01 | 0.01 to 0.1
< 0.01 | < 0.01 | < 0.01 | CCn1cc(-c2nn3c4cc(ncc24)Nc2ccnc(n2)-c2cnn(C)c2OCC[C@@H]3C)cc1CN1CCN(C)CC1 [(146)] | 0.1 to 1 | < 0.01 | < 0.01 | < 0.01
< 0.01 | < 0.01 | < 0.01 | C[C@H]1CCOc2c(cnn2C)-c2nccc(n2)Nc2cc3c(cn2)c(-c2cc(CN4CCN(C5CC5)CC4)n(C)c2)nn31 [(147)] | 0.1 to 1 | < 0.01 | < 0.01 | < 0.01
< 0.01 | < 0.01 | < 0.01 | CCn1cc(-c2nn3c4cc(ncc24)Nc2ccnc(n2)-c2cnn(C)c2OCC[C@@H]3C)cc1CN1CCOCC1 [(148)] | 0.1 to 1 | < 0.01 | < 0.01 | < 0.01
< 0.01 | < 0.01 | < 0.01 | CCN(CC)CCOc1cc(-c2nn3c4cc(ncc24)Nc2ccnc(n2)-c2cnn(C)c2OCC[C@@H]3C)ccc1F [(149)] | 0.1 to 1 | < 0.01 | < 0.01 | 0.01 to 0.1
< 0.01 | 0.01 to 0.1 | < 0.01 | Cc1ccc(-c2nn3c4cc(ncc24)Nc2ccnc(n2)-c2cnn(C)c2OCC[C@@H]3C)n1C [(150)] | ≥ 1 | 0.01 to 0.1 | 0.01 to 0.1 | 0.01 to 0.1
< 0.01 | < 0.01 | < 0.01 | CC(C)n1cc(-c2nn3c4cc(ncc24)Nc2ccnc(n2)-c2cnn(C)c2OCC[C@@H]3C)cc1CN1CCOCC1 [(151)] | 0.1 to 1 | < 0.01 | < 0.01 | 0.01 to 0.1
< 0.01 | < 0.01 | < 0.01 | CCCn1cc(-c2nn3c4cc(ncc24)Nc2ccnc(n2)-c2cnn(C)c2OCC[C@@H]3C)cc1CN1CCOCC1 [(152)] | 0.1 to 1 | < 0.01 | < 0.01 | < 0.01
< 0.01 | < 0.01 | < 0.01 | CCN(CC)CCOc1cc(-c2nn3c4cc(ncc24)Nc2ccnc(n2)-c2cnn(C)c2OCC[C@@H]3C)ccc1Cl [(153)] | 0.1 to 1 | 0.01 to 0.1 | 0.01 to 0.1 | 0.01 to 0.1
< 0.01 | < 0.01 | < 0.01 | C[C@H]1CCOc2c(cnn2C)-c2nccc(n2)Nc2cc3c(cn2)c(-c2ccc(F)c(OCCN4CCOCC4)c2)nn31 [(154)] | 0.1 to 1 | 0.01 to 0.1 | < 0.01 | 0.01 to 0.1
< 0.01 | < 0.01 | < 0.01 | C[C@H]1CCOc2c(cnn2C)-c2nccc(n2)Nc2cc3c(cn2)c(-c2nn(C)cc2CCN(C)C)nn31 [(155)] | ≥ 1 | 0.01 to 0.1 | 0.01 to 0.1 | 0.01 to 0.1
< 0.01 | < 0.01 | < 0.01 | CCn1cc(-c2nn3c4cc(ncc24)Nc2ccnc(n2)-c2cnn(C)c2OCC[C@@H]3C)cc1CN(C)C [(156)] | 0.1 to 1 | < 0.01 | < 0.01 | < 0.01
< 0.01 | < 0.01 | < 0.01 | C[C@H]1CCOc2c(cnn2C)-c2nccc(n2)Nc2cc3c(cn2)c(-c2ncc(CN(C)C)s2)nn31 [(157)] | 0.1 to 1 | 0.01 to 0.1 | < 0.01 | 0.01 to 0.1
< 0.01 | 0.1 to 1 | < 0.01 | CCN(CC)CCOc1cccc(-c2nn3c4cc(ncc24)Nc2ccnc(n2)-c2cnn(C)c2OCC[C@@H]3C)c1C [(158)] | 0.1 to 1 | 0.1 to 1 | 0.1 to 1 | 0.1 to 1
0.01 to 0.1 | 0.1 to 1 | 0.01 to 0.1 | CCN(CC)CCOc1ccc(C)c(-c2nn3c4cc(ncc24)Nc2ccnc(n2)-c2cnn(C)c2OCC[C@@H]3C)c1 [(159)] | 0.1 to 1 | 0.1 to 1 | 0.1 to 1 | 0.1 to 1
< 0.01 | < 0.01 | < 0.01 | C[C@H]1CCOc2c(cnn2C)-c2nccc(n2)Nc2cc3c(cn2)c(-c2cccc(N4CCC(N5CCOCC5)CC4)c2)nn31 [(160)] | 0.1 to 1 | < 0.01 | < 0.01 | 0.01 to 0.1
< 0.01 | < 0.01 | < 0.01 | CCN1CCc2c(cc(-c3nn4c5cc(ncc35)Nc3ccnc(n3)-c3cnn(C)c3OCC[C@@H]4C)n2C)C1C (stereo partly drawn) [(161)] | 0.1 to 1 | < 0.01 | < 0.01 | 0.01 to 0.1
< 0.01 | < 0.01 | < 0.01 | C[C@H]1CCOc2c(cnn2C)-c2nccc(n2)Nc2cc3c(cn2)c(-c2ccc(CN(C)C)o2)nn31 [(162)] | 0.1 to 1 | < 0.01 | < 0.01 | < 0.01
< 0.01 | < 0.01 | < 0.01 | C[C@H]1CCOc2c(cnn2C)-c2nccc(n2)Nc2cc3c(cn2)c(-c2cccc(CCN4CCOCC4)c2)nn31 [(163)] | 0.1 to 1 | 0.01 to 0.1 | < 0.01 | 0.01 to 0.1
< 0.01 | < 0.01 | < 0.01 | C[C@H]1CCOc2c(cnn2C)-c2nccc(n2)Nc2cc3c(cn2)c(-c2ccc(CN4CCOCC4)o2)nn31 [(164)] | 0.1 to 1 | < 0.01 | < 0.01 | 0.01 to 0.1
< 0.01 | < 0.01 | < 0.01 | C[C@H]1CCOc2c(cnn2C)-c2nccc(n2)Nc2cc3c(cn2)c(-c2cccc(CN(C)C)c2)nn31 [(165)] | 0.1 to 1 | < 0.01 | < 0.01 | < 0.01
< 0.01 | < 0.01 | < 0.01 | C[C@H]1CCOc2c(cnn2C)-c2nccc(n2)Nc2cc3c(cn2)c(-c2cccc(N4CC[C@@H](N(C)C)C4)c2)nn31 [(166)] | 0.1 to 1 | < 0.01 | < 0.01 | < 0.01
< 0.01 | < 0.01 | < 0.01 | C[C@H]1CCOc2c(cnn2C)-c2nccc(n2)Nc2cc3c(cn2)c(-c2cccc(N4CC[C@H](N(C)C)C4)c2)nn31 [(167)] | 0.1 to 1 | < 0.01 | < 0.01 | < 0.01
< 0.01 | < 0.01 | < 0.01 | Cc1cc(-c2nn3c4cc(ncc24)Nc2ccnc(n2)-c2cnn(C)c2OCC[C@@H]3C)oc1CN(C)C [(168)] | 0.1 to 1 | < 0.01 | < 0.01 | < 0.01
< 0.01 | < 0.01 | < 0.01 | C[C@H]1CCOc2c(cnn2C)-c2nccc(n2)Nc2cc3c(cn2)c(N2CC[C@H](CN(C)CCF)C2)nn31 [(169)] | 0.1 to 1 | < 0.01 | < 0.01 | < 0.01
